PMC12389534, “Unlocking Therapeutic Potential of Novel Thieno-Oxazepine Hybrids as Multi-Target Inhibitors of AChE/BChE and Evaluation Against Alzheimer’s Disease: In Vivo, In Vitro, Histopathological, and Docking Studies” (Pharmaceuticals, 2025)

Experiments:
[1] = tested on: Wnt3a; experiment: Brain Wnt3a level; type: in vivo, rat; conditions: AlCl3-induced AD rats
Outline: (§1)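 Read-outs came from cleared 10% (w/v) rat brain homogenates. The tissue was saline-washed, homogenised in ice-cold 300 mM sucrose with 50 mM Tris-HCl, pH 7.4, then spun 10 min at 1800× g and 4 °C, with storage at −20 °C.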

[2] = tested on: AChE; type: in vivo; set-up: reduction in AChE levels: concentration or dose not given beside the values; conditions: AlCl3-induced AD rats
[3] = tested on: MDA; experiment: Brain MDA content (thiobarbituric acid method); type: in vivo, rat; set-up: reduction in MDA brain content: concentration or dose not given beside the values; conditions: AlCl3-induced AD rats
[4] = tested on: Bcl-2; experiment: Bcl-2 gene expression (RT-qPCR); type: in vivo, rat; conditions: AlCl3-induced AD rats
Outline: (§2)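 After the last behavioral test, the rats were euthanized. Their brains were excised 24 h later and washed in isotonic saline. Six per group were then halved, with the second half reserved at −80 °C for transcript analysis.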

[5] = tested on: AlCl3-induced AD rat model; experiment: Y-maze SAP test in AlCl3-induced AD rats; type: in vivo; conditions: mean ± SE, n = 6
Outline: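 Spontaneous alternation performance measured in male Dawley rats (300–320 g) with AlCl3-induced AD, each allowed 8 min free exploration of a three-arm Y-maze. Arm entries counted with hind paws fully inside; SAP (%) = alternations/(total entries − 2) × 100.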

[6] = tested on: NFκβ; experiment: NFκβ mRNA expression (RT-qPCR); type: in vivo, rat; set-up: reduction of NFκβ mRNA expression: concentration or dose not given beside the values; conditions: AlCl3-induced AD rats
Outline: as §2

[7] = tested on: HO-1; experiment: HO-1 mRNA expression (RT-qPCR); type: in vivo, rat; conditions: AlCl3-induced AD rats
Outline: as §2

[8] = tested on: TLR4; experiment: TLR4 mRNA expression (RT-qPCR); type: in vivo, rat; set-up: reduction of TLR4 mRNA expression: concentration or dose not given beside the values; conditions: AlCl3-induced AD rats
Outline: as §2

[9] = tested on: TAC; experiment: Brain TAC (colorimetric); type: in vivo, rat; conditions: AlCl3-induced AD rats
Outline: (§3)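 Rat brains taken 24 h after euthanasia following the last behavioral test; 10% homogenate in 300 mM sucrose/50 mM Tris-HCl pH 7.4, centrifuged 1800× g 10 min at 4 °C, supernatant used. SOD measured by nitro blue tetrazolium reduction at 540 nm; TAC colorimetrically from residual hydrogen peroxide at 660 nm.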

[10] = tested on: Caspase-1; experiment: Caspase-1 gene expression (RT-qPCR); type: in vivo, rat; set-up: reduction of Caspase-1 levels: concentration or dose not given beside the values; conditions: AlCl3-induced AD rats
Outline: as §2

[11] = tested on: brain tissue (CC, ST, FD, SN neurons); experiment: Histopathological examination of brain tissue; type: in vivo, rat; conditions: brain sections, AlCl3-induced AD rats
Outline: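 Rat brains were taken 24 h after euthanasia following the last behavioural test, with four brains per group fixed in 10% neutral buffered formalin. Tissue was dehydrated through graded alcohol, paraffin-embedded and sectioned at 4 µm.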

[12] = tested on: BACE1; experiment: Brain BACE1 level (ELISA); type: in vivo, rat; set-up: reduction of BACE1 levels: concentration or dose not given beside the values; conditions: AlCl3-induced AD rats
Outline: as §1

[13] = tested on: NE; experiment: Brain NE level (fluorometric); type: in vivo, rat; conditions: AlCl3-induced AD rats
[14] = tested on: SOD; experiment: Brain SOD activity (colorimetric); type: in vivo, rat; conditions: brain tissue, AlCl3-induced AD rats; mean ± SE, n = 6
Outline: as §3

[15] = tested on: BDNF; experiment: Brain BDNF level (ELISA); type: in vivo, rat; conditions: AlCl3-induced AD rats
Outline: as §1

[16] = tested on: DA; experiment: Brain DA level (fluorometric); type: in vivo, rat; conditions: AlCl3-induced AD rats
Outline: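 Rat brains collected after the last behavioral test were homogenized (10% w/v) in ice-cold 300 mM sucrose, 50 mM Tris-HCl pH 7.4. Monoamines measured fluorometrically in homogenate by the Ciarlone method; concentrations in ng/g fresh tissue against reference solutions.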

[17] = tested on: β-catenin; experiment: Brain β-catenin level; type: in vivo, rat; conditions: AlCl3-induced AD rats
Outline: as §1

[18] = gene expression, mean ± SE, n = 6
[19] = mRNA expression level, mean ± SE, n = 6

## O=C1CN(c2ccc(Cl)cc2)C(=O)c2c(sc3c2CCCCC3)O1 [Compound 12, 4-(4-Chlorophenyl)-3,4,7,8,9,10-hexahydro-6H-cyclohepta[4,5]thieno[3,2-f][1,4]oxazepine-2,5-dione]
[1]
  elevation of Wnt3a levels: 6.3 fold
[1]; mean ± SE, n = 6
  Wnt3a (ng/g Tissue): 0.76 ± 0.01 ^abc ng/g Tissue
[2]; brain tissue, mean ± SE, n = 6
  AChE (ng/g Tissue): 35.66 ± 0.19 ^abc ng/g Tissue
[2]; brain
  reduction in AChE levels: 47%
[3]
  reduction in MDA brain content: 38%
[3]; brain tissue, mean ± SE, n = 6
  MDA (nmol/g Tissue): 72.02 ± 0.05 ^abc nmol/g Tissue
[4]
  upregulation of Bcl-2 gene expression: 6.8 fold
[4]; [18]
  Bcl-2: 0.82 ± 0.020 ^abc
[5]
  SAP%: 76.5 ± 1.52 ^abc %
[6]
  reduction of NFκβ mRNA expression: 49.2%
[6]; [19]
  NFκβ: 4.30 ± 0.14 ^abc
[7]
  elevation of HO-1 mRNA expression: 5.7 fold
[7]; mRNA expression in brain tissue, mean ± SE, n = 6
  HO-1: 0.69 ± 0.020 ^abc
[8]
  reduction of TLR4 mRNA expression: 71.4%
[8]; [19]
  TLR4: 2.75 ± 0.06 ^abc
[9]
  improvement of TAC levels: approximately 3 times
[9]; brain tissue, mean ± SE, n = 6
  TAC (µmol/g Tissue): 29.33 ± 0.57 ^abc µmol/g Tissue
[10]
  reduction of Caspase-1 levels: 52.3%
[10]; [18]
  Caspase-1: 4.54 ± 0.090 ^abc
[11]; H&E
  histopathological finding in CC, ST, FD and SN (NP = nuclear pyknosis): normal histology in CC and FD, as well as mild NP in ST and SN
[11]
  histology of CC neurons and FD: normal histological structures
  pyknosis in ST and SN neurons: minimal pyknosis
[12]
  reduction of BACE1 levels: 53.9%
[12]; mean ± SE, n = 6
  BACE1 (ng/mL): 13.68 ± 0.2 ^abc ng/mL
[13]
  rise in the level of NE: 2.2 times
[13]; brain tissue, mean ± SE, n = 6
  NE (nmol/g Tissue): 420.5 ± 2.86 ^abc nmol/g Tissue
[14]
  SOD(U/g): 2.15 ± 0.39 ^abc U/g
[15]
  elevation of BDNF levels: 2 fold
[15]; brain tissue, mean ± SE, n = 6
  BDNF (ng/mL): 83.62 ± 0.06 ^abc ng/mL
[16]
  elevation of DA levels: 3.2 fold
[16]; brain tissue, mean ± SE, n = 6
  DA (ng/g Tissue): 38.37 ± 2.86 ^abc ng/g Tissue
[17]
  elevation of β-catenin levels: 6.3 fold
[17]; mean ± SE, n = 6
  β-Catenin (ng/L): 9.91 ± 0.15 ^abc ng/L
